# Data taken from US11542470B2, “Methods of differentiating stem cell-derived proprioceptors” (MEMORIAL SLOAN-KETTERING CANCER CENTER, priority 2016, dated 2023).
# Tests used:
# human stem cells = experiment: Differentiation of human stem cells into sensory neuron subtypes in E8/E6 medium (TrkA, TrkB, TrkC); format: cell-based; conditions: CHIR99021 3 μM, 1.5 μM and 0.75 μM from day 2 through day 12, FIG. 3B
# Protocol: An E8/E6 medium was used to differentiate human stem cells into sensory neurons, including nociceptors, proprioceptors, and mechanoceptors. […] On day 4, day 8, day 12, and day 16, the cells were measured for CD49d expression. […] On day 16 and day 20, cells were stained for BRN3A, TUJ1, and DAPI. […] TrkA is a nociceptor marker, TrkB is a mechanoreceptor marker, and TrkC is a proprioceptor marker.
# rodent GSK3β homologs = conditions: cited from earlier work
structure (smiles),measurement,setting,value
"Cc1c[nH]c(-c2cnc(NCCNc3ccc(C#N)cn3)nc2-c2ccc(Cl)cc2Cl)n1 [CHIR99021, 6-(2-(4-(2,4-dichlorophenyl)-5-(4-methyl-1H-imidazol-2-yl)pyrimidin-2-ylamino)ethylamino)nicotinonitrile]","generation of the three sensory neuron subtypes (nociceptors, proprioceptors, mechanoreceptors)",human stem cells,generated at similar efficiencies
same,IC50 values against rodent GSK3β homologs,rodent GSK3β homologs,nanomolar
